What all share (format): in vivo
The test system of experiment [1] is rat Transient Middle Cerebral Artery Occlusion (tMCAO) model. Kind of experiment: Blood flow in the brain cortex (Flow-R Laser Doppler) in rat tMCAO stroke model. The conditions noted are these: for enhanced blood flow as compared to vehicle controls: Example 1 first phase, day 50. The procedure: (§1) Transient middle cerebral artery occlusion was performed according to the method described R. Schmid-Eisaesser et al. Briefly, the right CCA (Common Carotid Artery) was exposed through a midline neck incision and carefully dissected free from surrounding nerves and fascia —from its bifurcation to the base of the skull. The occipital artery branches of the ECA (External Carotid Artery) were then isolated, and these branches were dissected and coagulated. The ECA was dissected further distally and coagulated along with the terminal lingual and maxillary artery branches, which was then divided. The ICA (Internal Carotid Artery) was isolated and carefully separated from the adjacent vagus nerve, and the pterygopalatine artery was ligated close to its origin with a 5-0 nylon suture (SMI, Belgium). Next a 4-0 silk suture was tied loosely around the mobilized ECA stump, and a 4 cm length of 4-0 monofilament nylon suture (the tip of the suture was blunted by using a flame, and the suture was coated with polylysine, prior to insertion) was inserted through the proximal ECA into the ICA and thence into the circle of Willis, effectively occluding the MCA. The surgical wound was closed and the animals were returned to their cages to recover from anesthesia. One hour and a half after occlusion rats were re-anesthetized, the monofilament was withdrawn to allow reperfusion, the surgical wound was closed and rats were returned to their cages.
(§2) Evaluation of the blood flow in the brain cortex and vessel constriction was carried out using a Flow-R Laser Doppler system, in which intracranial blood flow and vessel diameter (constriction/dilation) was monitored.

For experiment [2] the test system is unchanged. Put plainly: Neuroscore (Modified Neurological Rating Scale, mNRS) in rat tMCAO stroke model. The procedure:
as §1
Animals were subjected to the mNSS test (Neuroscore) at Day 2, 24 hours post reperfusion. Only animals with an overall score of ≧10 were included in this Example.
Each animal was also subjected to a neuroscore test. The Modified Neurological Rating Scale (mNRS), or Neuroscore, was performed before the operation, on Day 2 and on Day 15, Day 22, Day 29, Day 36 Day 43 and Day 50. The individual making the behavioral assessments was unaware of the drug/dose given (blind test). A total Neuroscore of 18 was possible, with higher scores correlating to worse functioning.
As in Example 1, each animal was subjected to a neuroscore test. The Modified Neurological Rating Scale (mNRS), or Neuroscore, was performed before the operation as described in Example 1 on day 2, day 29, day 43, day 50, day 57, day 64 and day 71. The individual making the behavioral assessments was unaware of the drug/dose given (blind test).
As in Examples 1 and 2, each animal was subjected to a neuroscore test. The Modified Neurological Rating Scale (mNRS), or Neuroscore, was performed before the operation as described in Example 1 on day 2, day 29, day 43, day 50, day 57, day 64, day 71. Day 78, and day 85. The individual making the behavioral assessments was unaware of the drug/dose given (blind test).

For experiment [3] the test system is unchanged. Kind of experiment: Body swing test in rat tMCAO stroke model. How it is done:
as §1
Animals were also subjected to a body swing test. Each rat was held approximately one inch from the base of its tail. It was then elevated to an inch above a surface of a table. The rat was held in the vertical axis, defined as no more than 10° to either the left or the right side. A swing was recorded whenever the rat moved its head out of the vertical axis to either side. Before attempting another swing, the rat had to return to the vertical position for the next swing to be counted, Twenty (20) total swings were counted. A normal rat typically has an equal number of swings to either side. Following focal ischemia, the rat tends to swing to the contralateral side (left side in this Example). Body swing scores were expressed as a percentage of […] over total swings.
Animals were also subjected to a body swing test as described in Example 1 on days 29, 43, 50, 57, 64 and 71.
Animals were also subjected to a body swing test as described in Example 1 on days 29, 43, 50, 57, 64, 71, 78 and 85.

The test system is the same in experiment [4]. Kind of experiment: Stepping test (forelimb akinesia) in rat tMCAO stroke model. The procedure: as §1
Animals were tested for forelimb akinesia in a stepping test (ST). The animal was held by its hind limbs fixed with one hand and the forelimb not to be monitored with the other, while the unrestrained fore-paw touched the table. The number of adjusting steps were counted while the animal is moved, sideways along the table surface (85 cm in approximately five seconds), in the forehand & backhand direction for both forelimbs.
Animals were also tested for forelimb akinesia in a stepping test (ST) as described in Example 1 on days 29, 43, 50, 57, 64 and 71.
Animals were also tested for forelimb akinesia in a stepping test (ST) as described in Example 1 on days 29, 43, 50, 57, 64, 71, 78 and 85.

Experiment [5] has the same test system. Kind of experiment: Blood vessel diameter (Flow-R Laser Doppler) in rat tMCAO stroke model. The procedure:
as §1, §2

The test system is the same in experiment [6]. Kind of experiment: Limb placement test in rat tMCAO stroke model. The procedure:
as §1
Animals were subjected to a limb placement test. The limb placing tests were divided into both forelimb and hindlimb tests. For the forelimb-placing test, the examiner held the rat close to a tabletop and scored the rat's ability to place the forelimb on the tabletop in response to whisker, visual, tactile or proprioceptive stimulation. Similarly, for the hindlimb placing test, the examiner assessed the rat's ability to place the hindlimb on the tabletop in response to tactile and proprioceptive stimulation. Separate sub-scores are obtained for each mode of sensory input and added to give total scores (for the forelimb placing test: 0=normal, 12=maximally impaired; for the hindlimb placing test: 0=normal; 6=maximally impaired). Scores were given in half-point increments (see below).
Forelimb placing test (0-12);
Visual placing (forward (0-2), sideways (0-2))
Tactile placing (dorsal (0-2), lateral (0-2))
Proprioceptive placing (0-2)
Animals were also subjected to a limb placement test as described in Example 1 on days 29, 43, 50, 57, 64 and 71.
Animals were also subjected to a limb placement test as described in Example 1 on days 29, 43, 50, 57, 64, 71, 78 and 85.

For experiment [7] the test system is unchanged. Kind of experiment: Cylinder test of motor function in rat tMCAO stroke model. The conditions noted are these: Example 2; 50 μg/kg SC daily from day 29; day 57 (day 26 all animals ~0.3; vehicle day 57 ~0.4). The procedure: Transient middle cerebral artery occlusion was performed according to the method described R. Schmid-Eisaesser et al. Briefly, the right CCA (Common Carotid Artery) was exposed through a midline neck incision and carefully dissected free from surrounding nerves and fascia —from its bifurcation to the base of the skull. The occipital artery branches of the ECA (External Carotid Artery) were then isolated, and these branches were dissected and coagulated. The ECA was dissected further distally and coagulated along with the terminal lingual and maxillary artery branches, which was then divided. The ICA (Internal Carotid Artery) was isolated and carefully separated from the adjacent vagus nerve, and the pterygopalatine artery was ligated close to its origin with a 5-0 nylon suture (SMI, Belgium). […]
The number of wall contacts performed independently with the left and right forepaw were counted and noted up to a total of 20 wall contacts per animal per session, and only supporting contacts were counted (i.e., full appositions of the paws with open digits to the cylinder walls).

[8] abbreviates: Example 1 second phase, 500 ug/kg SC from day 51, measured day 108.
Setting [9] is: Example 3, SC daily from day 29, TXA127 100-1,000 μg/kg, TXA302 1-500 μg/kg, by day 43, maintained through day 85.
The mark [10] stands for this setting: Example 3, SC daily from day 29, TXA127 100-1,000 μg/kg, TXA302 1-500 μg/kg, by day 43.
Setting [11] is: Example 3, SC daily from day 29, TXA127 100-1,000 μg/kg, TXA302 1-500 μg/kg, by day 43, maintained through Day 85.
Setting [12] is: Example 3, SC daily from day 29, TXA127 100-1,000 μg/kg, TXA302 1-500 μg/kg, by day 43, maintained or improved through day 85.

For “Asp^1-Arg^2-Val^3-Tyr^4-Ile^5-His^6-Pro^7 (DRVYIHP; listed as Homo sapiens) [TXA127]”, the “enhanced blood flow as compared to vehicle controls” value in experiment [1] (continuous infusion via Alzet pump) is about 30%; in experiment [1] (subcutaneously administered, each treatment group), about 35%. In addition, the “blood flow ratio as compared to vehicle control group” value in experiment [1] (setting [8]) is “improved”. Moreover, the “neuroscore as compared to vehicle control animals” value in experiment [2] (Example 1 first phase, 100, 300, 500 μg/kg SC daily or Alzet pump, started 24 hours after tMCAO, all treatment groups by day 15, maintained through day 50) is “statistically significant reduction in neuroscore”; in experiment [2] (Example 1 second phase, 500 ug/kg SC daily, first treatment day 51 after tMCAO, by day 65), “statistically significant improvement”; in experiment [2] (setting [9]), “statistically significant reduction in neuroscore”. Moreover, the “performance in body swing test” value in experiment [3] (Example 1 first phase, 100, 300, 500 μg/kg SC or Alzet, started 24 hours after tMCAO, by day 15, statistical significance by day 22 in some groups, day 29 in all treatment groups) is reported as “improvement in performance”; in experiment [3] (Example 1 second phase, 500 ug/kg SC daily from day 51, as early as day 58, maintained throughout observation period), “trend toward improved performance”; in experiment [3] (setting [10]), “statistically significant improvement in performance”. Moreover, the “performance in stepping test as compared to vehicle control animals” value is listed as “significant improvement in performance” in experiment [4] (Example 1 first phase, 100, 300, 500 μg/kg SC or Alzet, started 24 hours after tMCAO, all treatment groups by day 22) and “significant improvement in performance” in experiment [4] (setting [11]). Moreover, the “performance in stepping test as compared to vehicle control group” value in experiment [4] (Example 1 second phase, 500 ug/kg SC daily from day 51, by day 65, increasing significance by day 86) is given as “statistically significant improvement in performance”. Moreover, the “improvement in blood vessel diameter as compared to vehicle controls” value in experiment [5] (Example 1 first phase, continuous infusion via Alzet pump, day 50) is given as about 40%. Moreover, the “enhanced blood vessel diameter, larger than vehicle control animals” value in experiment [5] (Example 1 first phase, subcutaneously administered, each treatment group (100, 300, 500 μg/kg), day 50) is on record as “approximately 20%”. Also, the “vessel diameter as compared to vehicle control group” value in experiment [5] (setting [8]) is reported as “improved”. In addition, in experiment [6] (Example 1 first phase, 100, 300, 500 μg/kg SC or Alzet, started 24 hours after tMCAO, all treatment groups by day 15, continued through day 50), the “performance in forelimb placement test as compared to vehicle control” value was “statistically significant improvements in performance”. The “performance in forelimb placement test” value in experiment [6] (Example 1 second phase, 500 ug/kg SC daily from day 51, beginning on day 72, trend as early as day 58) is reported as “statistically significant improvement in performance”. For the same substance, the “performance in limb placement test as compared to vehicle control animals” value in experiment [6] (setting [12]) is recorded as “statistically significant improvements in performance”.
Turning to “Ala^1-Arg^2-Val^3-Ser^4-Ile^5-His^6-Cys^7 (ARVSIHC) [TXA302, angiotensin (1-7) peptide]”, the “neuroscore as compared to vehicle control animals” value in experiment [2] (Example 2, 50 μg/kg SC daily from day 29 (28 days post-tMCAO), by day 43, maintained through day 71) is listed as “statistically significant reduction in neuroscore”; in experiment [2] (setting [9]) it was “statistically significant reduction in neuroscore”. Moreover, the “performance in body swing test” value in experiment [3] (Example 2, 50 μg/kg SC daily from day 29, by day 50, maintained through Day 71) is given as “statistically significant improvement in performance”; in experiment [3] (setting [10]) it was “statistically significant improvement in performance”. In addition, the “performance in stepping test as compared to vehicle control animals” value in experiment [4] (Example 2, 50 μg/kg SC daily from day 29, by day 43, maintained through Day 71) was “significant improvement in performance”; in experiment [4] (setting [11]) it was “significant improvement in performance”. Besides, the “performance in limb placement test as compared to vehicle control animals” value in experiment [6] (Example 2, 50 μg/kg SC daily from day 29, by day 43, maintained or improved through day 71) is “statistically significant improvements in performance”; in experiment [6] (setting [12]), “statistically significant improvements in performance”. Also, the “cylinder test ratio of left paw to right paw contacts” value in experiment [7] is reported as about 0.75.

Values taken from patent publication US9333233B2, “Methods and compositions for the delayed treatment of stroke” (TARIX PHARMACEUTICALS LTD., priority 2014, dated 2016).
